Legend:
bone marrow (BM) blasts = test: Clinical study of emavusertib (Compound 1) on bone marrow (BM) blasts in AML / hrMDS patients with vs without prior immune checkpoint inhibitor exposure (FIG. 1A, FIG. 1B); format: in vivo, human
Source text: FIG. 1A is a graph showing the results of a clinical study for the efficacy of emavusertib (Compound 1) administration on reducing bone marrow (BM) blasts in patients with blood cancer. Blasts are immature white blood cells that are usually found in small numbers in healthy bone marrow. High levels of blasts circulating in the blood are associated with cancer. This clinical study measured the change in blast levels before and after receiving Compound 1 treatment. Here, the relative change in blast levels before and after Compound 1 is compared between patients who had previously received immune checkpoint inhibitors in prior treatment and patients who were naïve to immune checkpoint inhibitors. The comparison groups each contain at least 5 high risk myelodysplastic syndrome (hrMDS) patients and 1 acute myeloid leukemia (AML) patient.
FIG. 1B is a graph showing baseline and best post-treatment blast levels of the subjects in FIG. 1A. […] Each patient is shaded according to their diagnosis.
To support the development of effective treatment regimens with Compound 1, a study was conducted to monitor bone marrow (BM) samples obtained from AML and high risk MDS patients with different prior histories of treatment. […] The present disclosure relates to methods of treating cancer with Compound 1 and other IRAK4 inhibitors or degraders, wherein the subject has a history of treatment with an immune checkpoint inhibitor.
This is a Phase 1, open-label dose escalation and cohort expansion study of Compound 1 as a monotherapy in patients with AML or MDS and in combination with AZA in treatment-naïve, adult patients with AML or hrMDS or in combination with VEN in patients with relapsed/refractory AML or hrMDS, after first line therapy.

[1] = Study Compound 1-101 (safety, drug exposure, biologic activity and clinical efficacy at 200 mg BID); format: in vivo, human
Source text: Three patients with AML or MDS will be enrolled at the designated dose. If none of the first 3 patients experience a dose-limiting toxicity during the first cycle, patients may be enrolled into the next higher dose level. If 1 patient out of the first 3 experiences a dose-limiting toxicity, the dose level may be expanded with an additional 3 patients.

For `Cc1cc(-c2nc(C(=O)Nc3cc4oc(N5CCOCC5)nc4nc3N3CC[C@@H](O)C3)co2)ccn1` [Compound 1, emavusertib], the “rate of response, as evidenced by reduced BM blast counts in hematology” value (bone marrow (BM) blasts; AML and high risk MDS patients, history of treatment with an immune checkpoint inhibitor vs no prior exposure) was “higher rate of response”, the “relative change in blast levels before and after Compound 1” value (bone marrow (BM) blasts; patients with prior immune checkpoint inhibitors (magrolimab, ipilimumab, or nivolumab + ipilimumab) vs not previously exposed, each group at least 5 hrMDS and 1 AML patient, FIG. 1A) was “significant reduction in blasts” and the “change in bone marrow blast counts from baseline to best post-baseline” value (bone marrow (BM) blasts; prior immune checkpoint inhibitor exposure compared to no prior exposure, FIG. 1B) was “higher decreases in bone marrow blast counts”. For the same compound, the “baseline vs best post-baseline bone marrow blasts counts” value (bone marrow (BM) blasts; prior immune checkpoint inhibitor exposure vs without exposure, FIG. 1A) was “significant difference”, the “biologic activity and clinical efficacy” value [1] was “signs of biologic activity and clinical efficacy” and the “safety of starting dose level” value [1] was “safe”.

From patent US20260365732A1, “METHODS OF TREATING CANCER IN SUBJECTS WITH PRIOR IMMUNE CHECKPOINT INHIBITOR EXPOSURE” (Curis, Inc., priority 2023, published 2026)
